# Reference: US7524868B2, “Substituted pyrazoline compounds, their preparation and use as medicaments” (Laboratorios Del Dr. Esteve, S.A., priority 2004, dated 2009)
# Test: In-vivo testing for antiobesic activity
# Details: rats
# [1] = 10 mg/kg body weight daily intraperitoneally over 14 days
compound,measurement,setting,value
"O=C(NN1CCCCC1)C1=NN(c2ccc(Cl)cc2Cl)C(c2ccc(Cl)cc2)C1 (stereo not drawn) [Example 1, N-piperidinyl-5-(4-chlorophenyl)-1-(2,4-dichlorophenyl)-4,5-dihydro-1H-pyrazole-3-carboxamide]",body weight (FIG. 1),[1],body weight is lowered
same,food intake (FIG. 2),[1],reduction of food intake
same,body weight effect after the treatment is ended (FIG. 1),after end of 14 days of 10 mg/kg daily intraperitoneally,also observed after the treatment is ended
